Assay: xn = mol fraction of the nth substance listed
Conditions: 298.15 K, 101.3 kPa, Liquid; for viscosity: Capillary tube (Ostwald / Ubbelohde) method

ClC=C(Cl)Cl [trichloroethene] + CCC(C)=O
Conditions	mass density [kg/m3]	viscosity [mPa·s]
x1 = 0.1004	861.2	0.4307
x1 = 0.2005	924.2	0.4566
x1 = 0.3002	987.2	0.4835
x1 = 0.4005	1052.5	0.5088
x1 = 0.5005	1117.6	0.5281
x1 = 0.6007	1183.7	0.5391
x1 = 0.7004	1249.6	0.5455
x1 = 0.8004	1315.5	0.5499
x1 = 0.8998	1385.4	0.5495
x1 = 1	1455.7	0.551

ClC=C(Cl)Cl [trichloroethene] + CCC(C)O
Conditions	mass density [kg/m3]	viscosity [mPa·s]
x1 = 0.102	868.5	2.502
x1 = 0.2035	932.3	2.019
x1 = 0.304	996.3	1.641
x1 = 0.4049	1061.2	1.344
x1 = 0.505	1125.4	1.128
x1 = 0.6051	1190.1	0.9463
x1 = 0.7042	1255.7	0.8155
x1 = 0.8033	1322	0.7014
x1 = 0.9014	1388.3	0.6101
x1 = 1	1455.7	0.551

ClC=C(Cl)Cl [trichloroethene] + CCCCO
Conditions	mass density [kg/m3]	viscosity [mPa·s]
x1 = 0.1018	870	2.098
x1 = 0.2033	934.3	1.734
x1 = 0.3038	997.5	1.429
x1 = 0.4042	1061.9	1.19
x1 = 0.5046	1126.5	1.008
x1 = 0.6045	1191.4	0.8696
x1 = 0.7042	1257	0.7737
x1 = 0.8025	1321.9	0.6878
x1 = 0.9014	1388.3	0.6227
x1 = 1	1455.7	0.551

ClC=C(Cl)Cl [trichloroethene] + CCCO
Conditions	mass density [kg/m3]	viscosity [mPa·s]
x1 = 0.0848	864.2	1.705
x1 = 0.1725	928.6	1.486
x1 = 0.2627	992.9	1.281
x1 = 0.3567	1058.3	1.099
x1 = 0.4541	1122.4	0.9476
x1 = 0.5556	1188.3	0.8226
x1 = 0.6604	1254.3	0.7262
x1 = 0.7691	1320.6	0.6463
x1 = 0.8823	1387.5	0.5848
x1 = 1	1455.7	0.551

ClC=C(Cl)Cl [trichloroethene] + CCO
Conditions	mass density [kg/m3]	viscosity [mPa·s]
x1 = 0.0673	852.4	1.047
x1 = 0.1397	918.2	0.9855
x1 = 0.2173	983.9	0.9272
x1 = 0.3018	1049.4	0.8651
x1 = 0.3932	1115.8	0.8082
x1 = 0.493	1182.4	0.7528
x1 = 0.602	1249.4	0.6984
x1 = 0.7215	1317.1	0.647
x1 = 0.8563	1385.6	0.5974
x1 = 1	1455.7	0.551

ClC=C(Cl)Cl [trichloroethene] + CCOC(C)=O
Conditions	mass density [kg/m3]	viscosity [mPa·s]
x1 = 0.1086	944.2	0.4658
x1 = 0.2151	998.6	0.5023
x1 = 0.3189	1052.8	0.5302
x1 = 0.4219	1108.6	0.5564
x1 = 0.5226	1163.7	0.5685
x1 = 0.6215	1220.2	0.5705
x1 = 0.7185	1277.3	0.5681
x1 = 0.8143	1335.6	0.563
x1 = 0.908	1393.5	0.5589
x1 = 1	1455.7	0.551

ClC=C(Cl)Cl [trichloroethene] + CO
Conditions	mass density [kg/m3]	viscosity [mPa·s]
x1 = 0.0477	853.7	0.5565
x1 = 0.1014	920.3	0.5667
x1 = 0.1616	985.5	0.5738
x1 = 0.2308	1052.1	0.5833
x1 = 0.3105	1117.9	0.595
x1 = 0.4033	1184.5	0.6017
x1 = 0.5125	1251.2	0.6021
x1 = 0.643	1318.4	0.5908
x1 = 0.8021	1386.3	0.575
x1 = 1	1455.7	0.551

ClC=C(Cl)Cl [trichloroethene] + COC(C)=O
Conditions	mass density [kg/m3]	viscosity [mPa·s]
x1 = 0.09	972.6	0.4128
x1 = 0.182	1022.8	0.4443
x1 = 0.2755	1074.4	0.4699
x1 = 0.372	1125.3	0.4925
x1 = 0.4703	1177.5	0.5147
x1 = 0.5713	1230.9	0.5325
x1 = 0.6748	1283.9	0.5447
x1 = 0.7806	1341	0.555
x1 = 0.8886	1397.9	0.5598
x1 = 1	1455.7	0.551

From the NIST ThermoML archive (doi:10.1021/je034203p)
